In ChEMBL document CHEMBL2321873, “1-(4-Phenylpiperazin-1-yl)-2-(1H-pyrazol-1-yl)ethanones as novel CCR1 antagonists” (Bioorg Med Chem Lett, 2013) one finds inhibition, Activity and IC50 data, which are given here for one compound.

The target of experiment [1] is T1, Atypical chemokine receptor 1 (Homo sapiens) (UniProt Q16570).
T1 sequence (whole entry): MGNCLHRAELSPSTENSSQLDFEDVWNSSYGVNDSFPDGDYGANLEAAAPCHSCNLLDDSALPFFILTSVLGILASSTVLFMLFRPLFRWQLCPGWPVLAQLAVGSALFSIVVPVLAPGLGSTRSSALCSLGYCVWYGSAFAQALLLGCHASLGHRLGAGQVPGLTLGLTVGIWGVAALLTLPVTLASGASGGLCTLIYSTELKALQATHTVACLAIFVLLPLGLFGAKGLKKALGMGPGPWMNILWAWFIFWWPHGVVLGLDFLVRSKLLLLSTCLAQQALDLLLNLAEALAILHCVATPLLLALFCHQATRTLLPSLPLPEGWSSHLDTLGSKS
Kind of experiment: Antagonist activity at Duffy (unknown origin) assessed as inhibition of chemotaxis at 10 uM.

The target in experiment [2] is C-X-C chemokine receptor type 4 (Homo sapiens) (UniProt P61073). In words: Antagonist activity at CXCR4 (unknown origin) assessed as inhibition of chemotaxis at 10 uM.
Experiment [3] has as its target T2, C-C chemokine receptor type 6 (Homo sapiens) (UniProt P51684).
T2 sequence (whole entry): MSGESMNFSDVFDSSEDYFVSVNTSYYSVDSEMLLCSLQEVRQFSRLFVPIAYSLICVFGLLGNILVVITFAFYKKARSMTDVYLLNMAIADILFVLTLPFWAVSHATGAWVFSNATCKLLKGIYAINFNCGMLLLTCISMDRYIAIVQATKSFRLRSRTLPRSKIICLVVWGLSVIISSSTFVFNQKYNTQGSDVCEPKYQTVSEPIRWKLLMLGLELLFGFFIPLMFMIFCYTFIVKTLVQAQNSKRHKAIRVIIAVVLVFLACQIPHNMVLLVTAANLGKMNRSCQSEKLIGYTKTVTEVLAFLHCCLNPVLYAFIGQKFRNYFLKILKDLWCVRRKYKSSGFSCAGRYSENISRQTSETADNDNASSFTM
Kind of experiment: Antagonist activity at CCR6 (unknown origin) assessed as inhibition of chemotaxis at 10 uM.

The target in experiment [4] is T3, C-C chemokine receptor type 4 (Homo sapiens) (UniProt P51679).
T3 sequence (whole entry): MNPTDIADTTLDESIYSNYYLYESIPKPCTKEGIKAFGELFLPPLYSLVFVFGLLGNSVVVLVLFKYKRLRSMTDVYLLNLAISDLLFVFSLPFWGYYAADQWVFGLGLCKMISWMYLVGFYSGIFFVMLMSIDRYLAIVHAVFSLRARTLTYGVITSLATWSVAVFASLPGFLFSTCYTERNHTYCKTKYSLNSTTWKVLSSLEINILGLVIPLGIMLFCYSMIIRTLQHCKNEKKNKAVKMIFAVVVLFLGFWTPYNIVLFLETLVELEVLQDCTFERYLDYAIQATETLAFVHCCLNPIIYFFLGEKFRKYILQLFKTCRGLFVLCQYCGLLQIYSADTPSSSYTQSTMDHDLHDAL
In words: Antagonist activity at CCR4 (unknown origin) assessed as inhibition of calcium flux at 10 uM. The experiment is classed as functional.

For experiment [5], the target named is C-C chemokine receptor type 5 (Homo sapiens) (UniProt P51681). In words: Antagonist activity at CCR5 (unknown origin) assessed as inhibition of calcium flux at 10 uM. The experiment is classed as functional.
The target in experiment [6] is T4, C-C chemokine receptor type 3 (Homo sapiens) (UniProt P51677).
T4 sequence (whole entry): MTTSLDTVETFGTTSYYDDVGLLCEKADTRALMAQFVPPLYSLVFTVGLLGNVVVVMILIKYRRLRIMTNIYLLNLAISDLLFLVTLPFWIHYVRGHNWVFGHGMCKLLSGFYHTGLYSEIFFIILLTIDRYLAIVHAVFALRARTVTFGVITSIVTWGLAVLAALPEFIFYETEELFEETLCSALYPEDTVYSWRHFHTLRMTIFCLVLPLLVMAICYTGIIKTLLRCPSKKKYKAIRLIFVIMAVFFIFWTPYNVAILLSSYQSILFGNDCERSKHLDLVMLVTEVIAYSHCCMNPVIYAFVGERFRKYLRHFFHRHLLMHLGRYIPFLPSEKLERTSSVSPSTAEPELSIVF
In words: Antagonist activity at CCR3 (unknown origin) assessed as inhibition of calcium flux at 10 uM. The experiment is classed as functional.

Experiment [7] has as its target T5, CX3C chemokine receptor 1 (Homo sapiens) (UniProt P49238).
T5 sequence (whole entry): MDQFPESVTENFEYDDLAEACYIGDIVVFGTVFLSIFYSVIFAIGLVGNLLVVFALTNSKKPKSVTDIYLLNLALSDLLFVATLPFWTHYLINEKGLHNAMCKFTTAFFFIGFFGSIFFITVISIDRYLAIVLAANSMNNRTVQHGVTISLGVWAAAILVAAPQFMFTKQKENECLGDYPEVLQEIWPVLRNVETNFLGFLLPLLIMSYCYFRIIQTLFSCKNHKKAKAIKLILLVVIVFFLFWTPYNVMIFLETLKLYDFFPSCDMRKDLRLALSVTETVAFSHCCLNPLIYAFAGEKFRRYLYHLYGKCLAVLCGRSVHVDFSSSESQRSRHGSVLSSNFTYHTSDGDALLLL
Kind of experiment: Binding affinity to CX3CR1 (unknown origin) at 10 uM by radioligand displacement assay.

The target in experiment [8] is T6, C-C chemokine receptor type 7 (Homo sapiens) (UniProt P32248).
T6 sequence (whole entry): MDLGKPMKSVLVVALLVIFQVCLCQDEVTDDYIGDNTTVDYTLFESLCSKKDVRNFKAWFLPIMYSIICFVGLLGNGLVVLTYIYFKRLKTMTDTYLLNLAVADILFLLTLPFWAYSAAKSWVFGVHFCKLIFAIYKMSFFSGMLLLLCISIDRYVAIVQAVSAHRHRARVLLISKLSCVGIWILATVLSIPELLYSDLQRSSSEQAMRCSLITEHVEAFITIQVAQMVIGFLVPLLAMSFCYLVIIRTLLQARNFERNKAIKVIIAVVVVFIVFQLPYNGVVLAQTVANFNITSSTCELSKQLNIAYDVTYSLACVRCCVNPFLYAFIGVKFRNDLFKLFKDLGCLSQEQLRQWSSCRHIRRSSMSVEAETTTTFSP
Kind of experiment: Binding affinity to CCR7 (unknown origin) at 10 uM by radioligand displacement assay.

The target of experiment [9] is Cytochrome P450 2D6 (Homo sapiens, UniProt P10635). Kind of experiment: Competitive inhibition of CYP2D6 (unknown origin). The experiment is classed as ADME.

Molecules are shown by their SMILES. Calls of active or inactive are those of the source. No cut-off for these calls is given here. Bounds are passed on as bounds.

Chain of Cytochrome P450 2D6 (P10635 whole entry): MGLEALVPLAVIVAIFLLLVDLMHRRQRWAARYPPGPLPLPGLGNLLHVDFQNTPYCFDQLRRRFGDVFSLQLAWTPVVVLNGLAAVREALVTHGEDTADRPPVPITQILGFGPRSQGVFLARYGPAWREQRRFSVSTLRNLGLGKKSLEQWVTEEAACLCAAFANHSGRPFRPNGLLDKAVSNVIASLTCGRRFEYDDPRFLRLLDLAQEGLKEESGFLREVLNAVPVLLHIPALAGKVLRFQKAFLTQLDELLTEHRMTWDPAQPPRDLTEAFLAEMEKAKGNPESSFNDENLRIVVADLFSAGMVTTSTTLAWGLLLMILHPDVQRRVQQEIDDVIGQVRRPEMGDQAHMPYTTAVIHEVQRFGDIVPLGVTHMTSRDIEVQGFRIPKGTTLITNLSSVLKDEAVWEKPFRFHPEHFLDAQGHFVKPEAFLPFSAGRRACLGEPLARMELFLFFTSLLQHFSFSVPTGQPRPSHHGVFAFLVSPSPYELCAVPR
Chain of C-C chemokine receptor type 5 (Homo sapiens) (P51681 whole entry, looked up): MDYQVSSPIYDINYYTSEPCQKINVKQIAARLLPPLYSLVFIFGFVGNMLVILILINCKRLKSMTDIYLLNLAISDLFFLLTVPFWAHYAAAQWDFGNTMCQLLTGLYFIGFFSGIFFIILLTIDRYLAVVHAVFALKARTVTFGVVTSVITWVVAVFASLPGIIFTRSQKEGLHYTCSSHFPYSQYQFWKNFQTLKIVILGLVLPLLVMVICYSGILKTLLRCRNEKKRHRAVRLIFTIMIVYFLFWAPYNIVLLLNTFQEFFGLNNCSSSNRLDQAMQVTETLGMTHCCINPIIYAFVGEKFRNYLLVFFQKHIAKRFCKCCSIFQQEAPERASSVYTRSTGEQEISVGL
Chain of C-X-C chemokine receptor type 4 (Homo sapiens) (P61073 whole entry): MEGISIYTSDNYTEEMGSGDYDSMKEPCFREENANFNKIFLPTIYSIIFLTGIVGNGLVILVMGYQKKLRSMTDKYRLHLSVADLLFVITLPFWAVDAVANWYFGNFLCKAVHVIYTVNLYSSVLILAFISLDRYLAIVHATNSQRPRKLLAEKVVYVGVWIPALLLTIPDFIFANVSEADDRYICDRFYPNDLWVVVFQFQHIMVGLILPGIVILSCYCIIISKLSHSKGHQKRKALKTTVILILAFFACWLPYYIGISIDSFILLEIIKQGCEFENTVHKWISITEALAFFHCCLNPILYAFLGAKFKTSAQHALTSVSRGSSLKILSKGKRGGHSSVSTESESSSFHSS

`COc1cc(N2CCN(C(=O)Cn3nc(C(F)(F)F)c(Cl)c3C)CC2)ccc1Cl`: the inhibition result in [1], in experiment [2], in [3], in experiment [4], in experiment [5] and in experiment [6] was “inactive” throughout. The outcome in [7] and in experiment [8] was inactive. The same compound returned an IC50 in experiment [9] of over 10 µM.
